Experimental data from PMC3546743 (2012).

tested on: modified aptamer M3.2 (DNA, aptamer) ACTCATCTGTGAAGAGAAGCAGCACAGAGGTCAGATGTCCGTCAGCCCCGATCGCCATCCAGGGACTCCCCCCTATGCCTATGCGTGCTACCGTGAA; assay: gold nanoparticle colorimetric assay, UV-Vis; settings: 250 mM NaCl; 1 µL of 50 mM compound in DMF added; room temperature; thiol oligos on gold nanoparticles

SMILES	binding
O=C(N[C@H](CO)[C@H](O)c1ccc([N+](=O)[O-])cc1)C(Cl)Cl	no
CN1C[C@H](CNC(=O)OCc2ccccc2)C[C@@H]2c3cccc4c3c(cn4C)C[C@H]21	yes
CC(C)[C@H]1C(=O)N2CCC[C@H]2[C@]2(O)O[C@](NC(=O)[C@@H]3C=C4c5cccc6[nH]cc(c56)C[C@H]4N(C)C3)(C(C)C)C(=O)N12	no
CN1C[C@H](CN)C[C@@H]2c3cccc4c3c(cn4C)C[C@H]21	yes

The remaining lines, values ahead:

binding	SMILES
no	N[C@@H](Cc1c[nH]c2ccccc12)C(=O)O
no	CN(C)Cc1c[nH]c2ccccc12
no	NCCc1c[nH]c2ccccc12
